Values joined by “and” are separate entries in the source; they are usually repeats but may differ in a detail not shown here. Equal entries are not always repeated.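 Method: 48-hour compound exposure of cells in 96-well plates, five concentrations, linear interpolation of endpoints. At the GI50, growth is halved. TGI: concentration producing complete growth inhibition.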
How the values were obtained:
Assay in all cases: inhibition of tumour cell growth, NCI panel, 48 h
[1] = tested on: MOLT-4 leukemia
[2] = tested on: EKVX NSCLC
[3] = tested on: U251 CNS
[4] = tested on: CAKI-1 renal
[5] = tested on: BT-549 breast
[6] = tested on: 786-0 renal
[7] = tested on: HCC-2998 colon
[8] = tested on: SK-MEL-28 melanoma
[9] = tested on: MDA-N
[10] = tested on: PC-3 prostate
[11] = tested on: MDA-MB-435
[12] = tested on: OVCAR-5 ovarian
[13] = tested on: UACC-257 melanoma
[14] = tested on: T-47D breast
[15] = tested on: LOX IMVI melanoma
[16] = tested on: IGROV1 ovarian
[17] = tested on: UACC-62 melanoma
[18] = tested on: OVCAR-8 ovarian
[19] = tested on: HOP-62 NSCLC
[20] = tested on: HCT-116 colon
[21] = tested on: MALME-3M melanoma
[22] = tested on: SF-268 CNS
[23] = tested on: SK-MEL-5 melanoma
[24] = tested on: SF-295 CNS
[25] = tested on: NCI-H460 lung
[26] = tested on: ACHN renal
[27] = tested on: DU-145 prostate
[28] = tested on: HT29 colon
[29] = tested on: M14 melanoma
[30] = tested on: NCI/ADR-RES ovarian
[31] = tested on: NCI-H23 lung
[32] = tested on: NCI-H522 lung
[33] = tested on: SR leukemia
[34] = tested on: MCF7 breast
[35] = tested on: RXF 393 renal
[36] = tested on: SK-OV-3 ovarian
[37] = tested on: TK-10 renal
[38] = tested on: UO-31 renal
[39] = tested on: SN12C renal
[40] = tested on: OVCAR-3 ovarian
[41] = tested on: SNB-19 CNS
[42] = tested on: SW-620 colon
[43] = tested on: COLO 205 colon
[44] = tested on: HCT-15 colon
[45] = tested on: MDA-MB-231 breast
[46] = tested on: NCI-H226 lung
[47] = tested on: HOP-92 NSCLC
[48] = tested on: OVCAR-4 ovarian
[49] = tested on: KM12 colon
[50] = tested on: SNB-75 CNS
[51] = tested on: HS 578T breast
[52] = tested on: A549 NSCLC
[53] = tested on: RPMI-8226 leukemia
[54] = tested on: SK-MEL-2 melanoma
[55] = tested on: SF-539 CNS
[56] = tested on: K-562 leukemia
[57] = tested on: A498 renal
[58] = tested on: CCRF-CEM leukemia

**Q.** For `COc1ccc2c(c1O)C13CCN(C)C(C2)C1CCC1(C3)OCCO1` (stereo unspecified), which TGI [1] is on record?
**A.** Its TGI is over 100000 nM.

**Q.** What about the TGI [2] of the same molecule?
**A.** The TGI was over 100000 nM.

**Q.** And the TGI [3]?
**A.** The TGI was over 100000 nM.

**Q.** What about the TGI [4] of the same molecule?
**A.** Its TGI is over 100000 nM.

**Q.** What about the TGI [5] of the same molecule?
**A.** The TGI was over 100000 nM.

**Q.** What about the TGI [6] of the same molecule?
**A.** The TGI was over 100000 nM.

**Q.** What about the TGI [7] of the same molecule?
**A.** Its TGI is over 100000 nM.

**Q.** And the TGI [8]?
**A.** The TGI was over 100000 nM.

**Q.** And the TGI [9]?
**A.** Its TGI is over 100000 nM.

**Q.** And the TGI [10]?
**A.** Its TGI is over 100000 nM.

**Q.** What about the TGI [11] of the same molecule?
**A.** Its TGI is over 100000 nM.

**Q.** And the TGI [12]?
**A.** Its TGI is over 100000 nM.

**Q.** And the TGI [13]?
**A.** Its TGI is over 100000 nM.

**Q.** What about the TGI [14] of the same molecule?
**A.** Its TGI is over 100000 nM.

**Q.** And the TGI [15]?
**A.** Its TGI is over 100000 nM.

**Q.** What about the TGI [16] of the same molecule?
**A.** Its TGI is over 100000 nM.

**Q.** What about the TGI [17] of the same molecule?
**A.** The TGI was over 100000 nM.

**Q.** And the TGI [18]?
**A.** Its TGI is over 100000 nM.

**Q.** And the TGI [19]?
**A.** Its TGI is over 100000 nM.

**Q.** What about the TGI [20] of the same molecule?
**A.** Its TGI is over 100000 nM.

**Q.** What about the TGI [21] of the same molecule?
**A.** Its TGI is over 100000 nM.

**Q.** And the TGI [22]?
**A.** The TGI was over 100000 nM.

**Q.** What about the TGI [23] of the same molecule?
**A.** The TGI was over 100000 nM.

**Q.** What about the TGI [24] of the same molecule?
**A.** The TGI was over 100000 nM.

**Q.** And the TGI [25]?
**A.** The TGI was over 100000 nM.

**Q.** What about the TGI [26] of the same molecule?
**A.** The TGI was over 100000 nM.

**Q.** What about the TGI [27] of the same molecule?
**A.** The TGI was over 100000 nM.

**Q.** What about the TGI [28] of the same molecule?
**A.** The TGI was over 100000 nM.

**Q.** What about the TGI [29] of the same molecule?
**A.** The TGI was over 100000 nM.

**Q.** What about the TGI [30] of the same molecule?
**A.** Its TGI is over 100000 nM.

**Q.** What about the TGI [31] of the same molecule?
**A.** The TGI was over 100000 nM.

**Q.** And the TGI [32]?
**A.** Its TGI is over 100000 nM.

**Q.** And the TGI [33]?
**A.** The TGI was over 100000 nM.

**Q.** What about the TGI [34] of the same molecule?
**A.** The TGI was over 100000 nM.

**Q.** What about the TGI [35] of the same molecule?
**A.** Its TGI is over 100000 nM.

**Q.** What about the TGI [36] of the same molecule?
**A.** The TGI was over 100000 nM.

**Q.** What about the TGI [37] of the same molecule?
**A.** Its TGI is over 100000 nM.

**Q.** What about the TGI [38] of the same molecule?
**A.** Its TGI is over 100000 nM.

**Q.** And the TGI [39]?
**A.** Its TGI is over 100000 nM.

**Q.** And the TGI [40]?
**A.** Its TGI is over 100000 nM.

**Q.** What about the TGI [41] of the same molecule?
**A.** The TGI was over 100000 nM.

**Q.** What about the TGI [42] of the same molecule?
**A.** Its TGI is over 100000 nM.

**Q.** And the TGI [43]?
**A.** The TGI was over 100000 nM.

**Q.** What about the TGI [44] of the same molecule?
**A.** Its TGI is over 100000 nM.

**Q.** What about the TGI [45] of the same molecule?
**A.** Its TGI is over 100000 nM.

**Q.** What about the TGI [46] of the same molecule?
**A.** Its TGI is over 100000 nM.

**Q.** And the TGI [47]?
**A.** Its TGI is over 100000 nM.

**Q.** And the TGI [48]?
**A.** The TGI was over 100000 nM.

**Q.** And the TGI [49]?
**A.** Its TGI is over 100000 nM.

**Q.** What about the TGI [50] of the same molecule?
**A.** Its TGI is over 100000 nM.

**Q.** And the TGI [51]?
**A.** Its TGI is over 100000 nM.

**Q.** What about the TGI [52] of the same molecule?
**A.** The TGI was over 100000 nM.

**Q.** And the TGI [53]?
**A.** Its TGI is over 100000 nM.

**Q.** And the TGI [54]?
**A.** Its TGI is over 100000 nM.

**Q.** Which results are given for `S=C(N/N=C(/c1ccccc1)c1ccccn1)N1CCCCC1`?
**A.** GI50 [1]: < 1 nM; GI50 [2]: 1210 nM; TGI [2]: 2450 nM and 558 nM; GI50 [3]: < 1 nM; TGI [3]: 1450 nM and 1760 nM; GI50 [4]: 107 nM; TGI [4]: 1660 nM and 2330 nM; TGI [5]: 2530 nM; GI50 [6]: < 1 nM; TGI [6]: 1870 nM and 1880 nM; TGI [7]: 2100 nM; GI50 [8]: 1080 nM; TGI [8]: 2550 nM and 2820 nM; GI50 [9]: 118 nM; TGI [9]: 2260 nM and 2620 nM; GI50 [10]: < 1 nM; TGI [10]: 1600 nM and 4080 nM; TGI [11]: 1980 nM and 1850 nM; GI50 [55]: 265 nM; TGI [55]: 1850 nM and 2090 nM; GI50 [12]: < 1 nM; TGI [12]: 2490 nM and 2110 nM; GI50 [13]: < 1 nM; TGI [13]: 1040 nM and 1160 nM; GI50 [14]: < 1 nM; TGI [14]: 1010 nM and 2900 nM; GI50 [56]: < 1 nM; TGI [56]: < 1 nM; TGI [15]: 1950 nM and 1320 nM; GI50 [16]: < 1 nM; TGI [16]: 1650 nM and 2560 nM; GI50 [17]: 965 nM; TGI [17]: 3160 nM; GI50 [57]: 81.5 nM; TGI [57]: 1430 nM and 2370 nM; GI50 [18]: < 1 nM; TGI [18]: 1960 nM and 1690 nM; GI50 [19]: < 1 nM; TGI [19]: 2330 nM and 2780 nM; GI50 [20]: < 1 nM; TGI [20]: 1600 nM and 1560 nM; GI50 [21]: 7.35 nM; TGI [21]: 2270 nM and 2200 nM; GI50 [22]: 323 nM; TGI [22]: 2500 nM and 5350 nM; GI50 [58]: < 1 nM; TGI [58]: 33.2 nM; TGI [23]: 1380 nM and 1560 nM; GI50 [24]: 188 nM; TGI [24]: 1750 nM and 2110 nM; GI50 [25]: 1.49 nM; TGI [25]: 2310 nM and 1520 nM; GI50 [26]: < 1 nM; TGI [26]: 1490 nM and 1460 nM; GI50 [27]: 1110 nM; TGI [27]: 2320 nM and 2870 nM; GI50 [28]: 34.5 nM; TGI [28]: 2170 nM and 2440 nM; TGI [29]: 1660 nM and 543 nM; GI50 [30]: < 1 nM; TGI [30]: 1870 nM and 986 nM; TGI [31]: 1740 nM; GI50 [32]: 422 nM; TGI [32]: 3130 nM and 1710 nM; GI50 [33]: < 1 nM; TGI [33]: < 1 nM; TGI [34]: 4120 nM; GI50 [35]: 12.9 nM; TGI [35]: 1430 nM and 3380 nM; GI50 [36]: < 1 nM; TGI [36]: 2360 nM and 1240 nM; TGI [37]: 1970 nM; GI50 [38]: 468 nM; TGI [38]: 2010 nM and 1540 nM; GI50 [39]: 171 nM; TGI [39]: 2180 nM and 2680 nM; GI50 [40]: < 1 nM; TGI [40]: 1880 nM and 1390 nM; GI50 [41]: 1100 nM; TGI [41]: 2900 nM and 5490 nM; GI50 [42]: < 1 nM; TGI [42]: 1230 nM and 2960 nM; GI50 [43]: < 1 nM; GI50 [44]: < 1 nM; TGI [44]: 2220 nM and 3940 nM; GI50 [45]: < 1 nM; TGI [45]: 2420 nM and 2210 nM; GI50 [46]: 1.48 nM; GI50 [47]: 1160 nM; TGI [47]: 2270 nM and 2810 nM; GI50 [48]: 119 nM; TGI [48]: 3120 nM and 1430 nM; GI50 [49]: 1.23 nM; TGI [49]: 1790 nM and 2110 nM; TGI [50]: 2920 nM; GI50 [51]: 1300 nM; TGI [51]: 6740 nM and 5880 nM; GI50 [52]: 3.61 nM; TGI [52]: 1710 nM and 3880 nM; GI50 [53]: < 1 nM; GI50 [54]: < 1 nM; TGI [54]: 2010 nM and 2360 nM

Source: PubChem BioAssay (NCI)
